Source: the supplement of paper PMC6411743

compound: Nc1ncnc2c1ncn2[C@@H]1O[C@H](COP(=O)(O)OP(=O)(O)OP(=O)(O)O)[C@@H](O)[C@H]1O [adenosine triphosphate]; assay: pEC50 of ATP-induced change in protein thermal stability (2D-TPP)
Protocol: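 2D thermal proteome profiling in mechanically disrupted Jurkat crude lysate. Lysate was treated 10 min at room temperature with Na-ATP (0, 0.005, 0.05, 0.5, 2 mM), heated to 12 temperatures (42-63.9 °C) for 3 min, and soluble protein was quantified by TMT10 LC-MS/MS. pEC50 is the median over replicates of dose-response fits at the lowest temperature showing a fold change of at least 1.5 (FDR-controlled hits).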

Sequence of UniProt O60884 (O60884 whole entry): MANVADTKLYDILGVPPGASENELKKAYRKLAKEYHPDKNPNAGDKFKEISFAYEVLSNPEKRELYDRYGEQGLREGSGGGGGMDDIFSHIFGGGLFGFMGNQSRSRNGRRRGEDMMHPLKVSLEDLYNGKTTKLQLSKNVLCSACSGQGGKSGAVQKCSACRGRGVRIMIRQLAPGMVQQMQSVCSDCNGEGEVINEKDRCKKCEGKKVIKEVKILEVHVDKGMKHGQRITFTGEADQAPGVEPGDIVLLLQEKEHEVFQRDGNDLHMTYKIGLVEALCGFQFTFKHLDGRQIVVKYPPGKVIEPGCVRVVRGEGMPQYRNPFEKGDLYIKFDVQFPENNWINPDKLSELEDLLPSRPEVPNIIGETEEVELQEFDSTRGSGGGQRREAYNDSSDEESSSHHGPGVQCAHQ
Sequence of UniProt O14732 (O14732 whole entry): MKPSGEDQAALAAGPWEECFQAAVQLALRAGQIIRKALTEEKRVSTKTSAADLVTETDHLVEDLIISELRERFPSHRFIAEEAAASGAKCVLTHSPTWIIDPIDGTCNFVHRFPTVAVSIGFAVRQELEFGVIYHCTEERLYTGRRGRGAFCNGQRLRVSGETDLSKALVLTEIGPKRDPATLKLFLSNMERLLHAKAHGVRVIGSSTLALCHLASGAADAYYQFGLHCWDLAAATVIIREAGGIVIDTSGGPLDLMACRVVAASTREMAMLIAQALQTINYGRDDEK
Sequence of UniProt P55011 (P55011 whole entry): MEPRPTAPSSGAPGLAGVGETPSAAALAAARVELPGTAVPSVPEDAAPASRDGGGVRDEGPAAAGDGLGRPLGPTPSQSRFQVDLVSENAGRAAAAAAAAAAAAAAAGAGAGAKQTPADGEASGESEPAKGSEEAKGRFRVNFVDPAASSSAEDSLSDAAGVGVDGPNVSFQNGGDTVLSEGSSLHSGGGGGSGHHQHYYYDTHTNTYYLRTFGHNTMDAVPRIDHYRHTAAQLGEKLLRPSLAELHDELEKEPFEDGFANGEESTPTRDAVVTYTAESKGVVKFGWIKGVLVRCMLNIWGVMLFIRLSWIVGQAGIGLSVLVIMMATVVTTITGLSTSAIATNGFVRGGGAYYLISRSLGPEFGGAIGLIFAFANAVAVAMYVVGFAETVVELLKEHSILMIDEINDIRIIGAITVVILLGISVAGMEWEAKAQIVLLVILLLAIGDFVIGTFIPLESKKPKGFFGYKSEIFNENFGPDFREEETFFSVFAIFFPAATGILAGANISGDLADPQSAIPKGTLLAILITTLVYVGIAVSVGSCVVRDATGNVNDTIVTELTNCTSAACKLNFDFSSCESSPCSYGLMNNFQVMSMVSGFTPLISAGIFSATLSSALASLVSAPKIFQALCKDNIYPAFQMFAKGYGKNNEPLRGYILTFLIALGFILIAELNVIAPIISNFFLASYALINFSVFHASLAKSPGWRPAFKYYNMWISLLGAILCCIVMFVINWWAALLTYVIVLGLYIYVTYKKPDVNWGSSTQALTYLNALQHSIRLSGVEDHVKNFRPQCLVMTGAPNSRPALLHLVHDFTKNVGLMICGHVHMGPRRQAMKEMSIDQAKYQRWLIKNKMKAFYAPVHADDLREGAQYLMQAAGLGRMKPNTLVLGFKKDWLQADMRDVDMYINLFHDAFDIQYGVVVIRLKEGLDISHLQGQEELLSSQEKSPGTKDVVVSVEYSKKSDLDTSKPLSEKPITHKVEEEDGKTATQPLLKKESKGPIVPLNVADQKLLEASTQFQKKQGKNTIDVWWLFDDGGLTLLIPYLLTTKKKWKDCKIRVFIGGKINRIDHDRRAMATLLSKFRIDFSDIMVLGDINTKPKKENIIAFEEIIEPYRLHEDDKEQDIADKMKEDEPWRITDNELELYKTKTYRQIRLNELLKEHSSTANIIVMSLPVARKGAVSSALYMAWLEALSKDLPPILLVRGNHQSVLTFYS
Sequence of UniProt P11908 (P11908 whole entry): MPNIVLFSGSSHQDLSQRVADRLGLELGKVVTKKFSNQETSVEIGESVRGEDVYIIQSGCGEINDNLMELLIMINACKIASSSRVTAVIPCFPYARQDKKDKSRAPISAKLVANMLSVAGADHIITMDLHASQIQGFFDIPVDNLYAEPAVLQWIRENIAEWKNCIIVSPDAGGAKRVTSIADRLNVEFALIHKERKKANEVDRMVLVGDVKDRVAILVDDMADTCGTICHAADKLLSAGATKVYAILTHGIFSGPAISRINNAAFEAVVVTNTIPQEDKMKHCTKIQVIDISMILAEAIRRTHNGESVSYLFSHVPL
Sequence of UniProt P22102 (P22102 whole entry): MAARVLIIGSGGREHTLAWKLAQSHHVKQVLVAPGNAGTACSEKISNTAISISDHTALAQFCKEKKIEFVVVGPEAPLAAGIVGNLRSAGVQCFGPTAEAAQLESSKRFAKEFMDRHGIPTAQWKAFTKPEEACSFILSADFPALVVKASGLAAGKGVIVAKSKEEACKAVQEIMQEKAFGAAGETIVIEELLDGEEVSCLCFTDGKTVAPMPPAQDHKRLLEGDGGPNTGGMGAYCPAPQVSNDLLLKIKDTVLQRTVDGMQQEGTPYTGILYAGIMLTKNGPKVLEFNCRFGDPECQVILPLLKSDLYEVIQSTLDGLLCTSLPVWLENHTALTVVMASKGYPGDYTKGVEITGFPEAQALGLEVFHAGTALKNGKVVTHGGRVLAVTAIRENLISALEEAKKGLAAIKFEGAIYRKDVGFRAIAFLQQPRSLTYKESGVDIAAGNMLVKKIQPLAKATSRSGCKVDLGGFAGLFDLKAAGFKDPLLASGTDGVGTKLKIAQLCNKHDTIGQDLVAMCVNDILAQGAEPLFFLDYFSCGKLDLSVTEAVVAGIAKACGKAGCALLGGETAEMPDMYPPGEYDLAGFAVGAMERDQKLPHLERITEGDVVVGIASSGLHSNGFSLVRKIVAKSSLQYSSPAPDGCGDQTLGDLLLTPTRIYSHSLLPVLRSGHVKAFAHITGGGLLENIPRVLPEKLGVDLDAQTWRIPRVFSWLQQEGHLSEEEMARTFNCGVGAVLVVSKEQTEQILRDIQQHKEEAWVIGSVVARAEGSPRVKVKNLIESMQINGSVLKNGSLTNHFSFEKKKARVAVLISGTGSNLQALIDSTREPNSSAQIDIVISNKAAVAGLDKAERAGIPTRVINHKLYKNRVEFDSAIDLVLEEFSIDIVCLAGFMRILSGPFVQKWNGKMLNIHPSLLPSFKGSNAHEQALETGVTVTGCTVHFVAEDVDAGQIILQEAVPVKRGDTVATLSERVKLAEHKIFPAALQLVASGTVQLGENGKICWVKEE
Sequence of UniProt Q9UNH7 (Q9UNH7 whole entry): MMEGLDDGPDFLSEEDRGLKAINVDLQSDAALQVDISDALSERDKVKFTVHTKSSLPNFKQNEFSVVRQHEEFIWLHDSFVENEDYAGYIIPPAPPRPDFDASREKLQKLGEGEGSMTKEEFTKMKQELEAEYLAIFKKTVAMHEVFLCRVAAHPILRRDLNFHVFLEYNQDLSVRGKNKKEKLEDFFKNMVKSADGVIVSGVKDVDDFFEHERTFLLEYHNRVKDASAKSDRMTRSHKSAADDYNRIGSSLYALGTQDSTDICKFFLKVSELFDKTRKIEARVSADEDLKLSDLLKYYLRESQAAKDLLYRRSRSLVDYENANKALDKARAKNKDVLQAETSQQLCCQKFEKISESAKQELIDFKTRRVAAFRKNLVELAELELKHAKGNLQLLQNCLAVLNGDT
Sequence of UniProt P45974 (P45974 whole entry): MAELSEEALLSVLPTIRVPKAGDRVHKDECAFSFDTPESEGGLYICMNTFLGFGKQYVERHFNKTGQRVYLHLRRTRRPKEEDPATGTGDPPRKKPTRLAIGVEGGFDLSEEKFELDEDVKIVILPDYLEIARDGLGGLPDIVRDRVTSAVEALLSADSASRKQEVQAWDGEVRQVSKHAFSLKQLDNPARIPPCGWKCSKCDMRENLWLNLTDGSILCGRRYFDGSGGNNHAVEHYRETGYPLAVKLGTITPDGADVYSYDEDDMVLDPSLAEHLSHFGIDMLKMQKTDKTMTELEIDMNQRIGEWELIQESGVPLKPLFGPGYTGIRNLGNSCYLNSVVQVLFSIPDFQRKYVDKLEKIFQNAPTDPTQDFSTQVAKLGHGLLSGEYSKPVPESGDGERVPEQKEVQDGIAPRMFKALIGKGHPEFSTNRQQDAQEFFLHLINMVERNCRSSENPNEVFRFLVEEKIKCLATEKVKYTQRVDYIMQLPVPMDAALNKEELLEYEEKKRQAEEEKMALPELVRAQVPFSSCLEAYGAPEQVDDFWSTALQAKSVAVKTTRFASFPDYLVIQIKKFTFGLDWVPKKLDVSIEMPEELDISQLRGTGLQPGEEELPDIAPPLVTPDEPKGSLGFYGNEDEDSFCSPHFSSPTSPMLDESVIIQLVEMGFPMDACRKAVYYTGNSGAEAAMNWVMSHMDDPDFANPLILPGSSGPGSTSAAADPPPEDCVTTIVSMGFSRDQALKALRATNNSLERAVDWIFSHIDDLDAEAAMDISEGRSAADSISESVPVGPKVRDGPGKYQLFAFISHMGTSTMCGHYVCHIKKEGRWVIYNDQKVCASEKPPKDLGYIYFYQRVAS
Sequence of UniProt Q86WB0 (Q86WB0 whole entry): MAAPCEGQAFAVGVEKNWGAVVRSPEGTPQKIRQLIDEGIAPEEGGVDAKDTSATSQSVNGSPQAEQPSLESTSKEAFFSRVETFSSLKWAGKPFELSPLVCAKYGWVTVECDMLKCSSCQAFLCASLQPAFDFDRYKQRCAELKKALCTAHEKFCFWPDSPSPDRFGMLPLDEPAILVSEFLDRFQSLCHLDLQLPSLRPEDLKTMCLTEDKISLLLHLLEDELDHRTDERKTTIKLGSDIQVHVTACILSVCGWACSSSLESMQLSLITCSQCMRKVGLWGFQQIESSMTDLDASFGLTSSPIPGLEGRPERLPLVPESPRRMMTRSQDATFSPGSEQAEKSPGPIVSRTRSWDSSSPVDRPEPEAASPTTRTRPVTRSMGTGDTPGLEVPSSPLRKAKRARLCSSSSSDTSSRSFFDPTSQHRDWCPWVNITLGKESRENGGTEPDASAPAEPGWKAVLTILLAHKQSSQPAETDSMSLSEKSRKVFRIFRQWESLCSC

**Q.** With “ZC3HC1 (effect direction: stabilized) (UniProt Q86WB0)” as the target, how does the pEC50 read?
**A.** The pEC50 was 2.91.

**Q.** “UniProt Q9UPN6 (effect direction: stabilized)” was tested. Which pEC50 did it give?
**A.** Its pEC50 is 3.96.

**Q.** For “GPD1L (effect direction: stabilized) (UniProt Q8N335)”, which pEC50 is on record?
**A.** Its pEC50 is 3.09.

**Q.** “UniProt Q9UBD5 (effect direction: stabilized)” was tested. Which pEC50 did it give?
**A.** The pEC50 was 3.47.

**Q.** With “PRCP (effect direction: stabilized) (UniProt P42785)” as the target, how does the pEC50 read?
**A.** The pEC50 was 2.94.

**Q.** How did the pEC50 turn out when “TBP (effect direction: destabilized) (UniProt P20226)” was run?
**A.** Its pEC50 is 3.12.

**Q.** With “PSMD3 (effect direction: stabilized) (UniProt O43242)” as the target, how does the pEC50 read?
**A.** The pEC50 was 4.24.

**Q.** How did the pEC50 turn out when “PRPS2 (effect direction: stabilized) (UniProt P11908)” was run?
**A.** Its pEC50 is 3.33.

**Q.** With “IQGAP1 (effect direction: destabilized) (UniProt P46940)” as the target, how does the pEC50 read?
**A.** Its pEC50 is 3.65.

**Q.** How did the pEC50 turn out when “UniProt Q9NQ88 (effect direction: stabilized)” was run?
**A.** Its pEC50 is 3.46.

**Q.** For “GLA (effect direction: stabilized) (UniProt P06280)”, which pEC50 is on record?
**A.** The pEC50 was 3.03.

**Q.** For “IDH3A (effect direction: stabilized) (UniProt P50213)”, which pEC50 is on record?
**A.** Its pEC50 is less than 2.7.

**Q.** With “PURB (effect direction: stabilized) (UniProt Q96QR8)” as the target, how does the pEC50 read?
**A.** Its pEC50 is less than 2.7.

**Q.** “SRRM2 (effect direction: stabilized) (UniProt Q9UQ35)” was tested. Which pEC50 did it give?
**A.** Its pEC50 is less than 2.7.

**Q.** “DNAJA2 (effect direction: stabilized) (UniProt O60884)” was tested. Which pEC50 did it give?
**A.** Its pEC50 is less than 2.7.

**Q.** “IMPA2 (effect direction: destabilized) (UniProt O14732)” was tested. Which pEC50 did it give?
**A.** Its pEC50 is less than 2.7.

**Q.** With “SLC12A9 (effect direction: stabilized) (UniProt Q9BXP2)” as the target, how does the pEC50 read?
**A.** The pEC50 was 3.94.

**Q.** For “SHPK (effect direction: stabilized) (UniProt Q9UHJ6)”, which pEC50 is on record?
**A.** Its pEC50 is 2.83.

**Q.** Which pEC50 does the source give for “ARPC5L (effect direction: stabilized) (UniProt Q9BPX5)” here?
**A.** Its pEC50 is 4.05.

**Q.** How did the pEC50 turn out when “PDCD6 (effect direction: destabilized) (UniProt O75340)” was run?
**A.** Its pEC50 is less than 2.7.

**Q.** Which pEC50 does the source give for “PPP2R1A (effect direction: stabilized) (UniProt P30153)” here?
**A.** Its pEC50 is less than 2.7.

**Q.** “UniProt P62081 (effect direction: destabilized)” was tested. Which pEC50 did it give?
**A.** The pEC50 was 3.68.

**Q.** With “UniProt P52434 (effect direction: stabilized)” as the target, how does the pEC50 read?
**A.** The pEC50 was less than 2.7.

**Q.** How did the pEC50 turn out when “RABGAP1 (effect direction: stabilized) (UniProt Q9Y3P9)” was run?
**A.** The pEC50 was less than 2.7.

**Q.** “ENO2 (effect direction: destabilized) (UniProt P09104)” was tested. Which pEC50 did it give?
**A.** Its pEC50 is 2.99.

**Q.** Which pEC50 does the source give for “BLVRB (effect direction: stabilized) (UniProt P30043)” here?
**A.** Its pEC50 is 2.87.

**Q.** For “GART (effect direction: stabilized) (UniProt P22102)”, which pEC50 is on record?
**A.** Its pEC50 is 4.88.

**Q.** For “UniProt P26639 (effect direction: stabilized)”, which pEC50 is on record?
**A.** Its pEC50 is less than 2.7.

**Q.** Which pEC50 does the source give for “EPS15L1 (effect direction: destabilized) (UniProt Q9UBC2)” here?
**A.** Its pEC50 is 2.94.

**Q.** How did the pEC50 turn out when “CTSB (effect direction: stabilized) (UniProt P07858)” was run?
**A.** Its pEC50 is 3.34.

**Q.** For “NAGK (effect direction: stabilized) (UniProt Q9UJ70)”, which pEC50 is on record?
**A.** The pEC50 was 3.15.

**Q.** With “TSR1 (effect direction: destabilized) (UniProt Q2NL82)” as the target, how does the pEC50 read?
**A.** Its pEC50 is 3.51.

**Q.** “PPP3CA (effect direction: destabilized) (UniProt Q08209)” was tested. Which pEC50 did it give?
**A.** Its pEC50 is 3.09.

**Q.** With “UniProt Q15208 (effect direction: stabilized)” as the target, how does the pEC50 read?
**A.** The pEC50 was 3.24.

**Q.** “PFN2 (effect direction: stabilized) (UniProt P35080)” was tested. Which pEC50 did it give?
**A.** Its pEC50 is 3.51.

**Q.** “DERA (effect direction: stabilized) (UniProt Q9Y315)” was tested. Which pEC50 did it give?
**A.** Its pEC50 is 3.16.

**Q.** Which pEC50 does the source give for “SAE1 (effect direction: stabilized) (UniProt Q9UBE0)” here?
**A.** Its pEC50 is less than 2.7.

**Q.** “PRPF4B (effect direction: stabilized) (UniProt Q13523)” was tested. Which pEC50 did it give?
**A.** Its pEC50 is 3.18.

**Q.** How did the pEC50 turn out when “PC (effect direction: stabilized) (UniProt P11498)” was run?
**A.** Its pEC50 is 3.45.

**Q.** For “SLC12A2 (effect direction: stabilized) (UniProt P55011)”, which pEC50 is on record?
**A.** The pEC50 was 3.44.

**Q.** How did the pEC50 turn out when “EPRS (effect direction: destabilized) (UniProt P07814)” was run?
**A.** The pEC50 was 4.04.

**Q.** “UniProt P24928 (effect direction: destabilized)” was tested. Which pEC50 did it give?
**A.** The pEC50 was 3.32.

**Q.** With “NCAPD2 (effect direction: stabilized) (UniProt Q15021)” as the target, how does the pEC50 read?
**A.** Its pEC50 is 3.56.

**Q.** For “PPT1 (effect direction: stabilized) (UniProt P50897)”, which pEC50 is on record?
**A.** The pEC50 was 3.3.

**Q.** With “HSD17B10 (effect direction: stabilized) (UniProt Q99714)” as the target, how does the pEC50 read?
**A.** The pEC50 was 3.24.

**Q.** “UniProt P62266 (effect direction: destabilized)” was tested. Which pEC50 did it give?
**A.** Its pEC50 is 3.33.

**Q.** With “PA2G4 (effect direction: destabilized) (UniProt Q9UQ80)” as the target, how does the pEC50 read?
**A.** Its pEC50 is 3.17.

**Q.** With “UniProt Q9Y2U5 (effect direction: stabilized)” as the target, how does the pEC50 read?
**A.** Its pEC50 is 3.72.

**Q.** For “COPB2 (effect direction: stabilized) (UniProt P35606)”, which pEC50 is on record?
**A.** Its pEC50 is less than 2.7.

**Q.** With “PGD (effect direction: stabilized) (UniProt P52209)” as the target, how does the pEC50 read?
**A.** Its pEC50 is less than 2.7.

**Q.** How did the pEC50 turn out when “NT5DC2 (effect direction: stabilized) (UniProt Q9H857)” was run?
**A.** Its pEC50 is less than 2.7.

**Q.** How did the pEC50 turn out when “ZRANB2 (effect direction: stabilized) (UniProt O95218)” was run?
**A.** The pEC50 was 2.84.

**Q.** Which pEC50 does the source give for “DDX49 (effect direction: stabilized) (UniProt Q9Y6V7)” here?
**A.** The pEC50 was 3.93.

**Q.** How did the pEC50 turn out when “PAF1 (effect direction: stabilized) (UniProt Q8N7H5)” was run?
**A.** Its pEC50 is 3.1.

**Q.** How did the pEC50 turn out when “CCT7 (effect direction: stabilized) (UniProt Q99832)” was run?
**A.** The pEC50 was 4.39.

**Q.** “UniProt Q8N1G2 (effect direction: stabilized)” was tested. Which pEC50 did it give?
**A.** The pEC50 was 3.14.

**Q.** Which pEC50 does the source give for “RAD51C (effect direction: stabilized) (UniProt O43502)” here?
**A.** Its pEC50 is 3.46.

**Q.** For “LEMD2 (effect direction: stabilized) (UniProt Q8NC56)”, which pEC50 is on record?
**A.** The pEC50 was 3.8.

**Q.** Which pEC50 does the source give for “USP5 (effect direction: stabilized) (UniProt P45974)” here?
**A.** Its pEC50 is less than 2.7.

**Q.** Which pEC50 does the source give for “CARS2 (effect direction: stabilized) (UniProt Q9HA77)” here?
**A.** The pEC50 was 3.14.

**Q.** How did the pEC50 turn out when “ACTR10 (effect direction: destabilized) (UniProt Q9NZ32)” was run?
**A.** Its pEC50 is less than 2.7.

**Q.** With “SKIV2L (effect direction: stabilized) (UniProt Q15477)” as the target, how does the pEC50 read?
**A.** Its pEC50 is 2.92.

**Q.** With “UTP15 (effect direction: destabilized) (UniProt Q8TED0)” as the target, how does the pEC50 read?
**A.** The pEC50 was 2.92.

**Q.** For “UniProt Q15046 (effect direction: stabilized)”, which pEC50 is on record?
**A.** The pEC50 was 3.22.

**Q.** “SNX6 (effect direction: stabilized) (UniProt Q9UNH7)” was tested. Which pEC50 did it give?
**A.** The pEC50 was less than 2.7.

**Q.** How did the pEC50 turn out when “UniProt P62308 (effect direction: destabilized)” was run?
**A.** Its pEC50 is 2.78.

**Q.** Which pEC50 does the source give for “TRMU (effect direction: stabilized) (UniProt O75648)” here?
**A.** Its pEC50 is 3.31.

**Q.** “ACTL6A (effect direction: stabilized) (UniProt O96019)” was tested. Which pEC50 did it give?
**A.** The pEC50 was 3.4.

**Q.** With “ANP32E (effect direction: stabilized) (UniProt Q9BTT0)” as the target, how does the pEC50 read?
**A.** The pEC50 was less than 2.7.

**Q.** How did the pEC50 turn out when “NUDT2 (effect direction: stabilized) (UniProt P50583)” was run?
**A.** The pEC50 was 3.31.

**Q.** With “EDF1 (effect direction: stabilized) (UniProt O60869)” as the target, how does the pEC50 read?
**A.** The pEC50 was less than 2.7.
